The text below walks through data of patent publication US20120004235A1, “METHODS TO TREAT CANCER” (Rutgers, The State University of New Jersey, priority 2009, published 2012).

Several values for one entry are separate records, joined by “and”; a condition that tells them apart may be missing. Equal values may be shown once. Where a name gives a salt, the structure may show the parent alone. Read-outs that look alike come from different tables or passages of the source. A value given as a limit tells only on which side of the number the result lay.

A word on the melting point: it is the temperature, or range, at which the solid turns liquid.

In data set [1] the test system is Human LOX-IMVI Melanoma Tumor Xenograft Model. The data set can be described thus: Test D xenograft, Compound 2 free base. The following applies: 90 mg/kg/day IP, qd × 5.
The test system of data set [2] is Human SK-MEL-3 Melanoma Tumor Xenograft Model. As to the kind of experiment: Test D xenograft, Compound 2 free base. The data set is classed as in vivo, nu/nu mice. The settings on record: 90 mg/kg/day IP, qd × 5. Here is the method:
(§1) The anti-tumor activity of Compound 2 (free base) was evaluated against a variety of human tumor xenograft models. A summary of the studies, including tumor type, dosing and administration, growth inhibition, and major findings is presented below.

Data set [3] deals with Human H1299 Lung Tumor Xenograft Model. As to the kind of experiment: Test D xenograft, Compound 2 free base. The settings on record: qod × 3.
In data set [4] the test system is Human MDA-MB-231 Breast Tumor Xenograft Model. The data set can be described thus: Test D xenograft, Compound 2 free base. The settings on record: qod × 3.
The test system of data set [5] is Human NCI-H292 Lung Tumor Xenograft Model. The data set can be described thus: Test D xenograft, Compound 2 free base. The settings on record: qod × 3.
The subject of data set [6] is Human H460 Non-Small Cell Lung Carcinoma Tumor Xenograft Model. The data set can be described thus: Test D xenograft, Compound 2 free base. Format: in vivo, nu/nu mice. The following applies: qod × 3. Here is the method:
as §1

Data set [7] relates to NCI-H460 human non-small cell lung carcinoma xenograft. As to the kind of experiment: Compound 2 citrate salt vs. NCI-H460 xenograft model (docetaxel control).
Data set [8] has the same test system. The data set can be described thus: Compound 2 citrate salt vs. NCI-H460 xenograft model (pemetrexed, topotecan, cisplatin controls). The settings on record: for mean tumor volume of the animals not at endpoint: 3 animals.
For data set [9], the system named is HCT-116 human colon tumor xenograft. As to the kind of experiment: Compound 2 citrate salt vs. HCT-116 human colon tumor xenograft model (IV). The settings on record: qod×3 weekly for 2 cycles. Background: In xenograft studies the graft and the host belong to different species.
Data set [10] concerns MDA-MB-231 human breast tumor xenograft. The settings on record: for TGD / animals not yet reached the study endpoint of 1500 mm^3: qod×3 weekly for 2 cycles; for animals not yet reached the study endpoint of 1500 mm^3: Day 90.
For data set [11], the system named is HT-29 human colon tumor xenograft. The data set can be described thus: Compound 2 citrate salt vs. HT-29 human colon tumor model.
In data set [12] the test system is NCI-H460 human non-small cell lung carcinoma xenograft. As to the kind of experiment: Comparison dose schedule study in the NCI-H460 xenograft model. The data set is classed as in vivo, nude (nu/nu) mice. The settings on record: 4.90 mg/kg/day IP, q4d×5; on Day 34. The text has this:
Irinotecan served as the positive control.

Where [13] appears, read: 2.72 mg/kg/day IP, qod×3 weekly for 2 cycles.
Where [14] appears, read: 2.72 mg/kg/day IP, qod×3 weekly for 2 cycles, Day 53.
Setting [15] is: 4.08 mg/kg/day IP, qod×3 weekly for 2 cycles.
Setting [16] is: all dosages (0.68, 1.36, 2.72 mg/kg IP, qod×3 weekly for 2 cycles).

As to `CN(C)/N=N/c1[nH]cnc1C(N)=O` [Dacarbazine, reference compound], in data set [1], the “Increase in Life Span (ILS)” value is 2.0x; the “Tumor Growth Delay T-C” value is 28 days and 14 days; the “Tumor Growth Inhibition T/C (tumor volume)” value (from here on “Tumor Growth Inhibition T/C”) is 80.6%. Besides, in [2], the “Increase in Life Span (ILS)” value amounted to 1.0x, the “Tumor Growth Delay T-C” value was found to be 0 days and the “Tumor Growth Inhibition T/C” value is recorded as 88.5%.
On to `CC(=O)O[C@@]12CO[C@@H]1C[C@H](O)[C@@]1(C)C(=O)[C@H](O)C3=C(C)[C@@H](OC(=O)[C@H](O)[C@@H](NC(=O)OC(C)(C)C)c4ccccc4)C[C@@](O)([C@@H](OC(=O)c4ccccc4)[C@H]21)C3(C)C` [Docetaxel, reference compound], for which the “Increase in Life Span (ILS)” value in data set [3] (16 mg/kg/day IV) is listed as 1.4x; in data set [3] (20 mg/kg/day IV), 1.6x; in data set [4] (16 mg/kg/day IV), more than 2.3x; in data set [4] (20 mg/kg/day IV), more than 2.3x; in data set [5] (16 mg/kg/day IV), 2.1x; in data set [5] (20 mg/kg/day IV), 2.1x. Also, the “Increase in Life Span (ILS)” value in [6] (12 mg/kg/day IV) was 1.4x. The “Tumor Growth Delay T-C” value in [3] (16 mg/kg/day IV) was 11 days; in data set [3] (20 mg/kg/day IV) it was 17 days; in data set [4] (16 mg/kg/day IV) it was more than 47 days; in data set [4] (20 mg/kg/day IV), more than 47 days; in data set [5] (16 mg/kg/day IV), 39 days; in [5] (20 mg/kg/day IV) it was 39 days. Besides, in data set [6] (12 mg/kg/day IV), the “Tumor Growth Delay T-C” value stood at 11 days. For the same compound, the “Tumor Growth Inhibition T/C” value in data set [3] (16 mg/kg/day IV) is reported as 35.2%; in [3] (20 mg/kg/day IV), 20.7%; in data set [4] (16 mg/kg/day IV), 4.8%; in data set [4] (20 mg/kg/day IV) it was 4.0%; in data set [5] (16 mg/kg/day IV), 8.7%; in data set [5] (20 mg/kg/day IV), 6.0%. Further, in data set [6] (12 mg/kg/day IV), the “Tumor Growth Inhibition T/C” value turned out to be 49.8%. Moreover, the “TGD (T-C)” value in data set [7] (20 mg/kg/day IV, qod × 3) was 21 days. Besides, the “TGI (T/C)” value in data set [7] (20 mg/kg/day IV, qod × 3) came to 22.7%. For the same compound, the “time to recover the weight loss” value in [7] (20 mg/kg/day IV, qod × 3) is given as not above 13 days. In [7] (20 mg/kg/day IV, qod × 3), the toxic deaths result is reported as “no toxic deaths”. Also, the maximum weight loss in data set [7] (20 mg/kg/day IV, qod×3, on Day 25) is given as 26.4%.
With `CNCCn1c(=O)c2cc(OC)c(OC)cc2c2cnc3cc4c(cc3c21)OCO4` [Compound 2 citrate salt, 8,9-dimethoxy-2,3-methylenedioxy-5-[2-(N-methylamino)ethyl]-5H-dibenzo[c,h]1,6-naphthyridin-6-one], the “TGI (T/C)” value in data set [8] (2.59 mg/kg/day IP, qd×5) is given as 30.5%; in data set [8] (3.27 mg/kg/day IP, qd×5), 33.5%; in [9] (1.36 mg/kg/day IV) it was 45.0%; in [10] (3.27 mg/kg/day IP, qd×5), 9.5%; in [11] (setting [13]) it was 50.1%; in data set [11] (setting [15]), 18.9%. Besides, in data set [7] (setting [13]), the “TGI (T/C)” value stood at 35.1%. In addition, the toxic deaths result in [8] (setting [13]) was “no toxic deaths”; in data set [9] (5.44 mg/kg/day IV, groups of 8) it was “⅝”; in data set [7] (setting [16]) it was “no toxic deaths”. Further, the “animals not yet reached the study endpoint of 2000 mm^3” value is 3 of 8 in [8] (setting [14]) and 3 of 8 in data set [8] (3.27 mg/kg/day IP, qd×5). Also, the “weight loss recovered at study termination” value in data set [8] (setting [14]) is listed as “approximately 12%”. In addition, the “mean tumor volume of the animals not at endpoint” value was 1583 mm^3 in data set [8] (setting [14]) and 1722 mm^3 in data set [8] (3.27 mg/kg/day IP, qd×5). Also, the maximum weight loss in [8] (2.72 mg/kg/day IP, qod×3 weekly for 2 cycles, on Day 22) is 22.3%; in data set [10] (3.27 mg/kg/day IP, qd×5), 15.7%; in data set [12], 24.2%. Besides, the ILS is 1.6 fold in data set [9] (1.36 mg/kg/day IV); more than 2.2 fold in [9] (2.72 mg/kg/day IV); more than 2.0 fold in data set [10] (3.27 mg/kg/day IP, qd×5); 1.7 fold in data set [11] (setting [15]); 2.0 fold in data set [7] (setting [13]). In addition, the “TGD (T-C)” value in data set [9] (1.36 mg/kg/day IV) amounted to 18 days; in [10] (3.27 mg/kg/day IP, qd×5), 42 days; in data set [11] (setting [15]), 31 days; in data set [7] (setting [13]), 24 days. The TGD in [9] (2.72 mg/kg/day IV) is given as more than 34 days; in data set [10] (2.04 mg/kg/day IP), 52 days; in data set [10] (2.72 mg/kg/day IP), more than 58 days; in [11] (2.72 mg/kg/day IP, qod×3 weekly for 2 cycles, vs untreated control), 16 days. Further, the “mice survivors at conclusion of the study” value in [9] (2.72 mg/kg/day IV, Day 62) was 50%. Also, in data set [9] (5.44 mg/kg/day IV), the weight loss was more than 30%. Further, the entries for the “animals not yet reached the study endpoint of 1500 mm^3” value in data set [10] (2.04 mg/kg/day IP) and in data set [10] (2.72 mg/kg/day IP) were 2 of 8 and 4 of 8, respectively. The “mice remaining on Day 90” value in data set [10] (3.27 mg/kg/day IP, qd×5) is reported as “one”. Moreover, in data set [11] (dose levels tested (1.36, 2.72, 4.08 mg/kg/day IP, qod×3 weekly for 2 cycles)), the tolerability result was “well tolerated”. The body weight loss in data set [7] (setting [16]) was less than 20%.
`COc1cc2c(cc1OC)-c1cnc3cc4c(cc3c1N(C(C)CN(C)C)C2)OCO4` (stereo not drawn) [Example 18, 8,9-Dimethoxy-2,3-methylenedioxy-5-[2-(N,N-dimethylamino)-1-methylethyl]-5,6-dihydro-dibenzo[c,h]1,6-naphthyridine] came in with a melting point of 153 to 154 °C.
As to `N.N.[Cl][Pt][Cl]` [Cisplatin], in data set [8] (0.75 and 1.5 mg/kg/day IP, qd×5), the antitumor activity result was “only active at the high dose”. In [8] (high dose (1.5 mg/kg/day IP, qd×5)), the “antitumor activity (TGI and TGD evaluation points)” value was “low activity at both evaluation points”. In [6] (3.3 mg/kg/day IP), the “Increase in Life Span (ILS)” value is 1.4x, the “Tumor Growth Delay T-C” value was 11 days and the “Tumor Growth Inhibition T/C” value is given as 44.5%.
Consider `COc1cc2c(=O)n(CCCN(C)C)c3c4cc5c(cc4ncc3c2cc1OC)OCO5` [Example 11, 8,9-Dimethoxy-2,3-methylenedioxy-5-[3-(N,N-dimethylamino)propyl]-5H-dibenzo[c,h]1,6-naphthyridin-6-one], for which the melting point is 262 to 264 °C (dec.).
On the same count and under the same terms, to `CCN(CC)CCn1c(=O)c2cc(OC)c(OC)cc2c2cnc3cc4c(cc3c21)OCO4` [Example 19, 8,9-Dimethoxy-2,3-methylenedioxy-5-[2-(N,N-diethylamino)ethyl]-5H-dibenzo[c,h]1,6-naphthyridin-6-one] belongs 221 to 223 °C (dec.).
